Measurements as given in ChEMBL document CHEMBL1201862, “PubChem BioAssay data set” (2004).
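Interpolation was linear, between the two tested concentrations surrounding the appropriate level; five concentrations were tested over 48 hours in 96-well plates. GI50 = concentration required for 50% inhibition of growth.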 Active and inactive are the calls of the source. No stated cut-off is given here; in the data, active = GI50 up to about 1.1 µM and inactive = higher.

Assays:
Test in all cases: DTP human tumour cell line panel, 48 h
NCI-H460 = test system: NCI-H460
SF-295 = test system: SF-295
U-251 = test system: U-251
DMS-114 = test system: DMS-114
OVCAR-3 = test system: OVCAR-3
CAKI-1 = test system: CAKI-1
SK-OV-3 = test system: SK-OV-3
A549 = test system: A549
Malme-3M = test system: Malme-3M
UO-31 = test system: UO-31
HOP-62 = test system: HOP-62
NCI-H23 = test system: NCI-H23
SNB-75 = test system: SNB-75
HCC 2998 = test system: HCC 2998

Measured: GI50

c1ccc2c(CNCCCN3CCN(CCCNCc4cccc5ccccc45)CC3)cccc2c1
inactive: NCI-H460 1.41 µM | SF-295 1.77 µM | U-251 1.73 µM | DMS-114 2 µM | OVCAR-3 2.89 µM | CAKI-1 1.72 µM | SK-OV-3 2.39 µM | A549 2.01 µM | Malme-3M 2.06 µM | UO-31 1.82 µM | HOP-62 19.8 µM | NCI-H23 11.4 µM | SNB-75 1.74 µM

CCn1c(O)c(C(=O)Nc2cccs2)c(=O)n(CC)c1=S
inactive: NCI-H460 15.5 µM | SF-295 11.7 µM | U-251 11.4 µM | DMS-114 15.4 µM | OVCAR-3 16.6 µM | CAKI-1 22.6 µM | SK-OV-3 26.7 µM | A549 18.5 µM | Malme-3M 19.9 µM | HOP-62 21.6 µM | NCI-H23 15.8 µM | SNB-75 17.5 µM

COc1ccc(/C(Cl)=C/c2ccc(Cl)c(Cl)c2)cc1
inactive: SF-295 23.7 µM | U-251 21.5 µM | DMS-114 16.6 µM | HCC 2998 19.8 µM | SK-OV-3 37.8 µM | A549 22.4 µM | Malme-3M 20.9 µM | UO-31 26.5 µM | HOP-62 27.5 µM | NCI-H23 19 µM | SNB-75 28.5 µM

COc1ccc(NC(=O)CC(=O)n2nc(-c3ccccc3)c(/N=N/c3ccccc3C(=O)O)c2-c2ccccc2)cc1
inactive: SF-295 42.4 µM | U-251 42.6 µM | DMS-114 > 100 µM | OVCAR-3 > 100 µM | HCC 2998 > 100 µM | CAKI-1 > 100 µM | SK-OV-3 15.9 µM | A549 > 100 µM | UO-31 > 100 µM | HOP-62 30.1 µM | NCI-H23 > 100 µM

CSc1cnc2ccccc2c1Sc1c[nH]c2ccccc2c1=O
inactive: NCI-H460 6.75 µM | SF-295 7.59 µM | U-251 6.49 µM | DMS-114 5.7 µM | OVCAR-3 5.22 µM | HCC 2998 12.9 µM | SK-OV-3 3.51 µM | A549 5.51 µM | Malme-3M 6.55 µM | UO-31 14 µM | HOP-62 12.2 µM | NCI-H23 11.3 µM | SNB-75 2.79 µM

NC1=NC(=O)C(CC(=O)Nc2ccc([N+](=O)[O-])cc2[N+](=O)[O-])S1 (stereo not given)
inactive: NCI-H460 > 100 µM | SF-295 > 100 µM | U-251 > 100 µM | DMS-114 > 100 µM | OVCAR-3 > 100 µM | HCC 2998 > 100 µM | A549 > 100 µM | Malme-3M > 100 µM | UO-31 > 100 µM | HOP-62 > 100 µM | NCI-H23 > 100 µM | SNB-75 92.9 µM

CC(=O)CC(=O)CCCC(=O)Nc1ccc(Cl)cc1C
inactive: NCI-H460 > 100 µM | SF-295 > 100 µM | U-251 > 100 µM | DMS-114 > 100 µM | OVCAR-3 > 100 µM | HCC 2998 > 100 µM | CAKI-1 > 100 µM | SK-OV-3 > 100 µM | A549 > 100 µM | Malme-3M > 100 µM | UO-31 > 100 µM | NCI-H23 > 100 µM

COc1ccc2c(c1)[n+]([O-])c(C(N)=O)c(N)[n+]2[O-]
inactive: NCI-H460 54.6 µM | SF-295 > 100 µM | U-251 86.7 µM | DMS-114 35.6 µM | OVCAR-3 32.7 µM | CAKI-1 > 100 µM | SK-OV-3 > 100 µM | A549 > 100 µM | Malme-3M > 100 µM | UO-31 > 100 µM | HOP-62 > 100 µM | NCI-H23 28.8 µM | SNB-75 65.6 µM

CC1(SCC(N)C(=O)O)CC(=O)NC1=O (stereo not given)
inactive: NCI-H460 > 100 µM | SF-295 > 100 µM | U-251 > 100 µM | DMS-114 > 100 µM | OVCAR-3 > 100 µM | HCC 2998 > 100 µM | CAKI-1 > 100 µM | SK-OV-3 > 100 µM | A549 > 100 µM | UO-31 > 100 µM | HOP-62 > 100 µM | NCI-H23 > 100 µM | SNB-75 > 100 µM
